According to patent US11357230B2, “Herbicidal amides” (FMC Corporation, priority 2017, dated 2022):

How the values were obtained:
Assay type in all cases: in vivo
[1] = system: barnyardgrass (Echinochloa crus-galli); assay: Test A postemergence, barnyardgrass; conditions: approximately 10 d
Text: (§1) Seeds of plant species selected from barnyardgrass (Echinochloa crus-galli), kochia (Kochia scoparia), ragweed (common ragweed, Ambrosia elatior), ryegrass, Italian (Italian ryegrass, Lolium multiflorum), foxtail, green (green foxtail, Setaria viridis), and pigweed (Amaranthus retroflexus) were planted into a blend of loam soil and sand and treated preemergence with a directed soil spray using test chemicals formulated in a non-phytotoxic solvent mixture which included a surfactant. At the same time, plants selected from these weed species and also wheat (Triticum aestivum), corn (Zea mays), blackgrass (Alopecurus myosuroides), and galium (catchweed bedstraw, Galium aparine) were planted in pots containing the same blend of loam soil and sand and treated with postemergence applications of test chemicals formulated in the same manner. Plants ranged in height from 2 to 10 cm and were in the one- to two-leaf stage for the postemergence treatment. Treated plants and untreated controls were maintained in a greenhouse for approximately 10 d, after which time all treated plants were compared to untreated controls and visually evaluated for injury. Plant response ratings, summarized in Table A, are based on a 0 to 100 scale where 0 is no effect and 100 is complete control. A dash (-) response means no test result.

[2] = system: blackgrass (Alopecurus myosuroides); assay: Test A postemergence, blackgrass; conditions: approximately 10 d
Text: as §1

corn (Zea mays) = assay: Test A postemergence, corn; conditions: approximately 10 d
Text: as §1

Foxtail, Giant [3] = assay: Test A postemergence, giant foxtail; conditions: approximately 10 d
[4] = system: galium (catchweed bedstraw, Galium aparine); assay: Test A postemergence, galium; conditions: approximately 10 d
Text: as §1

kochia (Kochia scoparia) [5] = assay: Test A postemergence, kochia; conditions: approximately 10 d
Text: as §1

[6] = system: pigweed (Amaranthus retroflexus); assay: Test A postemergence, pigweed; conditions: approximately 10 d
Text: as §1

[7] = system: ragweed (common ragweed, Ambrosia elatior); assay: Test A postemergence, ragweed; conditions: approximately 10 d
Text: as §1

[8] = system: ryegrass, Italian (Italian ryegrass, Lolium multiflorum); assay: Test A postemergence, Italian ryegrass; conditions: approximately 10 d
Text: as §1

[9] = system: wheat (Triticum aestivum); assay: Test A postemergence, wheat; conditions: approximately 10 d
Text: as §1

[10] = system: barnyardgrass (Echinochloa crus-galli); assay: Test A preemergence, barnyardgrass; conditions: approximately 10 d
Text: as §1

Foxtail, Giant [11] = assay: Test A preemergence, giant foxtail; conditions: approximately 10 d
kochia (Kochia scoparia) [12] = assay: Test A preemergence, kochia; conditions: approximately 10 d
Text: as §1

[13] = system: pigweed (Amaranthus retroflexus); assay: Test A preemergence, pigweed; conditions: approximately 10 d
Text: as §1

[14] = system: ragweed (common ragweed, Ambrosia elatior); assay: Test A preemergence, ragweed; conditions: approximately 10 d
Text: as §1

[15] = system: ryegrass, Italian (Italian ryegrass, Lolium multiflorum); assay: Test A preemergence, Italian ryegrass; conditions: approximately 10 d
Text: as §1

[16] = system: barnyardgrass (Echinochloa crus-galli); assay: Test B flooded paddy test, barnyardgrass; conditions: 250 g ai/ha, Flood (paddy water), 13 to 15 d
Method: (§2) Plant species in the flooded paddy test selected from rice (Oryza sativa), sedge, umbrella (small-flower umbrella sedge, Cyperus difformis), ducksalad (Heteranthera limosa), and barnyardgrass (Echinochloa crus-galli) were grown to the 2-leaf stage for testing. At time of treatment, test pots were flooded to 3 cm above the soil surface, treated by application of test compounds directly to the paddy water, and then maintained at that water depth for the duration of the test. Treated plants and controls were maintained in a greenhouse for 13 to 15 d, after which time all species were compared to controls and visually evaluated. Plant response ratings, summarized in Table B, are based on a scale of 0 to 100 where 0 is no effect and 100 is complete control. A dash (-) response means no test result.

[17] = system: ducksalad (Heteranthera limosa); assay: Test B flooded paddy test, ducksalad; conditions: 250 g ai/ha, Flood (paddy water), 13 to 15 d
Method: as §2

rice (Oryza sativa) = assay: Test B flooded paddy test, rice; conditions: 250 g ai/ha, Flood (paddy water), 13 to 15 d
Method: as §2

[18] = system: sedge, umbrella (small-flower umbrella sedge, Cyperus difformis); assay: Test B flooded paddy test, umbrella sedge; conditions: 250 g ai/ha, Flood (paddy water), 13 to 15 d
Method: as §2

Structure (SMILES)	Plant response rating (0 to 100 scale, 0 is no effect, 100 is complete control) ([1]; 31 g ai/ha)	Plant response rating (0 to 100 scale, 0 is no effect, 100 is complete control) ([1]; 125 g ai/ha)	Plant response rating (0 to 100 scale, 0 is no effect, 100 is complete control) ([2]; 31 g ai/ha)	Plant response rating (0 to 100 scale, 0 is no effect, 100 is complete control) ([2]; 125 g ai/ha)	Plant response rating (0 to 100 scale, 0 is no effect, 100 is complete control) (corn (Zea mays); 31 g ai/ha)	Plant response rating (0 to 100 scale, 0 is no effect, 100 is complete control) (corn (Zea mays); 125 g ai/ha)	Plant response rating (0 to 100 scale, 0 is no effect, 100 is complete control) (Foxtail, Giant [3]; 31 g ai/ha)	Plant response rating (0 to 100 scale, 0 is no effect, 100 is complete control) (Foxtail, Giant [3]; 125 g ai/ha)	Plant response rating (0 to 100 scale, 0 is no effect, 100 is complete control) ([4]; 31 g ai/ha)	Plant response rating (0 to 100 scale, 0 is no effect, 100 is complete control) ([4]; 125 g ai/ha)	Plant response rating (0 to 100 scale, 0 is no effect, 100 is complete control) (kochia (Kochia scoparia) [5]; 31 g ai/ha)	Plant response rating (0 to 100 scale, 0 is no effect, 100 is complete control) (kochia (Kochia scoparia) [5]; 125 g ai/ha)	Plant response rating (0 to 100 scale, 0 is no effect, 100 is complete control) ([6]; 31 g ai/ha)	Plant response rating (0 to 100 scale, 0 is no effect, 100 is complete control) ([6]; 125 g ai/ha)	Plant response rating (0 to 100 scale, 0 is no effect, 100 is complete control) ([7]; 31 g ai/ha)	Plant response rating (0 to 100 scale, 0 is no effect, 100 is complete control) ([7]; 125 g ai/ha)	Plant response rating (0 to 100 scale, 0 is no effect, 100 is complete control) ([8]; 31 g ai/ha)	Plant response rating (0 to 100 scale, 0 is no effect, 100 is complete control) ([8]; 125 g ai/ha)	Plant response rating (0 to 100 scale, 0 is no effect, 100 is complete control) ([9]; 31 g ai/ha)	Plant response rating (0 to 100 scale, 0 is no effect, 100 is complete control) ([9]; 125 g ai/ha)	further results
CC(=O)NN=C1[C@H](C(=O)Nc2cccc(F)c2F)[C@@H](c2ccc(C(F)(F)F)cc2)CN1C (relative stereo) [Compound 5]	60	80	60	80	0	40	70	80	70	80	20	30	30	80	0	0	10	80	0	50	Plant response rating (0 to 100 scale, 0 is no effect, 100 is complete control) ([10]; 31 g ai/ha): 90; Plant response rating (0 to 100 scale, 0 is no effect, 100 is complete control) ([10]; 125 g ai/ha): 90; Plant response rating (0 to 100 scale, 0 is no effect, 100 is complete control) (Foxtail, Giant [11]; 31 g ai/ha): 90; Plant response rating (0 to 100 scale, 0 is no effect, 100 is complete control) (Foxtail, Giant [11]; 125 g ai/ha): 90; Plant response rating (0 to 100 scale, 0 is no effect, 100 is complete control) (kochia (Kochia scoparia) [12]; 31 g ai/ha): 10; Plant response rating (0 to 100 scale, 0 is no effect, 100 is complete control) (kochia (Kochia scoparia) [12]; 125 g ai/ha): 90; Plant response rating (0 to 100 scale, 0 is no effect, 100 is complete control) ([13]; 31 g ai/ha): 70; Plant response rating (0 to 100 scale, 0 is no effect, 100 is complete control) ([13]; 125 g ai/ha): 80; Plant response rating (0 to 100 scale, 0 is no effect, 100 is complete control) ([14]; 31 g ai/ha): 0; Plant response rating (0 to 100 scale, 0 is no effect, 100 is complete control) ([14]; 125 g ai/ha): 70; Plant response rating (0 to 100 scale, 0 is no effect, 100 is complete control) ([15]; 31 g ai/ha): 20; Plant response rating (0 to 100 scale, 0 is no effect, 100 is complete control) ([15]; 125 g ai/ha): 90; Plant response rating (scale of 0 to 100, 0 is no effect, 100 is complete control) [16]: 45; Plant response rating (scale of 0 to 100, 0 is no effect, 100 is complete control) [17]: 65; Plant response rating (scale of 0 to 100, 0 is no effect, 100 is complete control) (rice (Oryza sativa)): 0; Plant response rating (scale of 0 to 100, 0 is no effect, 100 is complete control) [18]: 0
CN1C[C@H](c2ccc(C(F)(F)F)cc2)[C@@H](C(=O)Nc2cccc(F)c2F)C1=NN1CCOCC1 (relative stereo) [Compound 7]	0	50	30	30	0	0	0	50	60	70	0	60	0	60	0	50	10	30	0	10	Plant response rating (0 to 100 scale, 0 is no effect, 100 is complete control) ([10]; 31 g ai/ha): 10; Plant response rating (0 to 100 scale, 0 is no effect, 100 is complete control) ([10]; 125 g ai/ha): 50; Plant response rating (0 to 100 scale, 0 is no effect, 100 is complete control) (Foxtail, Giant [11]; 31 g ai/ha): 50; Plant response rating (0 to 100 scale, 0 is no effect, 100 is complete control) (Foxtail, Giant [11]; 125 g ai/ha): 90; Plant response rating (0 to 100 scale, 0 is no effect, 100 is complete control) (kochia (Kochia scoparia) [12]; 31 g ai/ha): 0; Plant response rating (0 to 100 scale, 0 is no effect, 100 is complete control) (kochia (Kochia scoparia) [12]; 125 g ai/ha): 20; Plant response rating (0 to 100 scale, 0 is no effect, 100 is complete control) ([13]; 31 g ai/ha): 0; Plant response rating (0 to 100 scale, 0 is no effect, 100 is complete control) ([13]; 125 g ai/ha): 10; Plant response rating (0 to 100 scale, 0 is no effect, 100 is complete control) ([14]; 31 g ai/ha): 0; Plant response rating (0 to 100 scale, 0 is no effect, 100 is complete control) ([14]; 125 g ai/ha): 0; Plant response rating (0 to 100 scale, 0 is no effect, 100 is complete control) ([15]; 31 g ai/ha): 0; Plant response rating (0 to 100 scale, 0 is no effect, 100 is complete control) ([15]; 125 g ai/ha): 0; Plant response rating (scale of 0 to 100, 0 is no effect, 100 is complete control) [16]: 10; Plant response rating (scale of 0 to 100, 0 is no effect, 100 is complete control) [17]: 45; Plant response rating (scale of 0 to 100, 0 is no effect, 100 is complete control) (rice (Oryza sativa)): 0; Plant response rating (scale of 0 to 100, 0 is no effect, 100 is complete control) [18]: 0
CN1C[C@H](c2ccc(C(F)(F)F)cc2)[C@@H](C(=O)Nc2cccc(F)c2F)C1=NNC(=O)OC(C)(C)C (relative stereo) [Compound 8]	60	80	30	60	20	70	50	80	60	70	0	0	30	40	0	0	10	60	0	40	Plant response rating (0 to 100 scale, 0 is no effect, 100 is complete control) ([10]; 31 g ai/ha): 90; Plant response rating (0 to 100 scale, 0 is no effect, 100 is complete control) ([10]; 125 g ai/ha): 90; Plant response rating (0 to 100 scale, 0 is no effect, 100 is complete control) (Foxtail, Giant [11]; 31 g ai/ha): 90; Plant response rating (0 to 100 scale, 0 is no effect, 100 is complete control) (Foxtail, Giant [11]; 125 g ai/ha): 90; Plant response rating (0 to 100 scale, 0 is no effect, 100 is complete control) (kochia (Kochia scoparia) [12]; 31 g ai/ha): 20; Plant response rating (0 to 100 scale, 0 is no effect, 100 is complete control) (kochia (Kochia scoparia) [12]; 125 g ai/ha): 80; Plant response rating (0 to 100 scale, 0 is no effect, 100 is complete control) ([13]; 31 g ai/ha): 30; Plant response rating (0 to 100 scale, 0 is no effect, 100 is complete control) ([13]; 125 g ai/ha): 80; Plant response rating (0 to 100 scale, 0 is no effect, 100 is complete control) ([14]; 125 g ai/ha): 20; Plant response rating (0 to 100 scale, 0 is no effect, 100 is complete control) ([15]; 31 g ai/ha): 20; Plant response rating (0 to 100 scale, 0 is no effect, 100 is complete control) ([15]; 125 g ai/ha): 70; Plant response rating (scale of 0 to 100, 0 is no effect, 100 is complete control) [16]: 75; Plant response rating (scale of 0 to 100, 0 is no effect, 100 is complete control) [17]: 60; Plant response rating (scale of 0 to 100, 0 is no effect, 100 is complete control) (rice (Oryza sativa)): 0; Plant response rating (scale of 0 to 100, 0 is no effect, 100 is complete control) [18]: 0
